From the NIST ThermoML archive (doi:10.1021/je060271a)
Numbers after ± are expanded uncertainties.

Settings: 343.15 K, Liquid, Vibrating tube method

CCCCCCC(=O)OCC(COC(=O)CCCCCC)(COC(=O)CCCCCC)COC(=O)CCCCCC [pentaerythritol tetraheptanoate]
Settings | mass density [kg/m3]
10613 kPa | 948.5 ± 1.2
10635 kPa | 948.4 ± 1.2
10655 kPa | 948.5 ± 1.2
10673 kPa | 948.4 ± 1.2
10692 kPa | 948.5 ± 1.2
10710 kPa | 948.5 ± 1.2
10732 kPa | 948.5 ± 1.2
10750 kPa | 948.5 ± 1.2
10769 kPa | 948.6 ± 1.2
10791 kPa | 948.6 ± 1.2
10810 kPa | 948.6 ± 1.2
10832 kPa | 948.8 ± 1.2
10851 kPa | 948.6 ± 1.2
10870 kPa | 948.6 ± 1.2
10893 kPa | 948.6 ± 1.2
10909 kPa | 948.6 ± 1.2
10932 kPa | 948.7 ± 1.2
10951 kPa | 948.6 ± 1.2
10975 kPa | 948.7 ± 1.2
10994 kPa | 948.7 ± 1.2
11014 kPa | 948.7 ± 1.2
11033 kPa | 948.8 ± 1.2
11056 kPa | 948.7 ± 1.2
11076 kPa | 948.8 ± 1.2
11096 kPa | 948.8 ± 1.2
11120 kPa | 948.9 ± 1.2
11140 kPa | 948.8 ± 1.2
11160 kPa | 948.7 ± 1.2
11184 kPa | 948.8 ± 1.2
11204 kPa | 948.8 ± 1.2
11224 kPa | 948.8 ± 1.2
11245 kPa | 948.8 ± 1.2
11269 kPa | 948.8 ± 1.2
11289 kPa | 948.9 ± 1.2
11310 kPa | 949 ± 1.2
11335 kPa | 948.8 ± 1.2
11356 kPa | 948.9 ± 1.2
11380 kPa | 948.8 ± 1.2
11401 kPa | 949.1 ± 1.2
11422 kPa | 948.9 ± 1.2
11447 kPa | 949 ± 1.2
11469 kPa | 949.1 ± 1.2
11490 kPa | 949 ± 1.2
11511 kPa | 948.9 ± 1.2
11537 kPa | 949.2 ± 1.2
11558 kPa | 949.1 ± 1.2
11584 kPa | 949.2 ± 1.2
11606 kPa | 949.1 ± 1.2
11627 kPa | 949.2 ± 1.2
11649 kPa | 949 ± 1.2
11675 kPa | 949.3 ± 1.2
11697 kPa | 949.1 ± 1.2
11719 kPa | 949.2 ± 1.2
11746 kPa | 949.3 ± 1.2
11768 kPa | 949.2 ± 1.2
11794 kPa | 949.3 ± 1.2
11817 kPa | 949.3 ± 1.2
11840 kPa | 949.2 ± 1.2
11862 kPa | 949.3 ± 1.2
11889 kPa | 949.4 ± 1.2
11911 kPa | 949.2 ± 1.2
11939 kPa | 949.3 ± 1.2
11962 kPa | 949.5 ± 1.2
11985 kPa | 949.4 ± 1.2
12012 kPa | 949.4 ± 1.2
12036 kPa | 949.4 ± 1.2
12060 kPa | 949.5 ± 1.2
12088 kPa | 949.5 ± 1.2
12112 kPa | 949.3 ± 1.2
12136 kPa | 949.5 ± 1.2
12159 kPa | 949.5 ± 1.2
12188 kPa | 949.5 ± 1.2
12212 kPa | 949.6 ± 1.2
12241 kPa | 949.5 ± 1.2
12265 kPa | 949.6 ± 1.2
12290 kPa | 949.5 ± 1.2
12314 kPa | 949.6 ± 1.2
12344 kPa | 949.5 ± 1.2
12368 kPa | 949.6 ± 1.2
12394 kPa | 949.7 ± 1.2
12424 kPa | 949.8 ± 1.2
12449 kPa | 949.7 ± 1.2
12474 kPa | 949.9 ± 1.2
12504 kPa | 949.7 ± 1.2
12530 kPa | 949.7 ± 1.2
12555 kPa | 949.8 ± 1.2
12581 kPa | 949.7 ± 1.2
12612 kPa | 949.9 ± 1.2
12638 kPa | 949.9 ± 1.2
12664 kPa | 949.8 ± 1.2
12695 kPa | 949.8 ± 1.2
12722 kPa | 950 ± 1.2
12750 kPa | 949.9 ± 1.2
12776 kPa | 950 ± 1.2
12803 kPa | 949.8 ± 1.2
12834 kPa | 950.1 ± 1.2
12861 kPa | 950.1 ± 1.2
12894 kPa | 950 ± 1.2
12921 kPa | 950.1 ± 1.2
12948 kPa | 950 ± 1.2
12975 kPa | 950 ± 1.2
13007 kPa | 950.1 ± 1.2
13035 kPa | 950.2 ± 1.2
13069 kPa | 950.1 ± 1.2
13098 kPa | 950.1 ± 1.2
13127 kPa | 950.2 ± 1.2
13155 kPa | 950.2 ± 1.2
13189 kPa | 950.3 ± 1.2
13217 kPa | 950.3 ± 1.2
13246 kPa | 950.3 ± 1.2
13275 kPa | 950.3 ± 1.2
13311 kPa | 950.4 ± 1.2
